In patent US20240301319A1, “PERFUMING COMPOSITIONS” (FIRMNICH SA, priority 2017, published 2024):
Values belong to the compound of their own block, whether it stands above or below them.

How the values were obtained:
[1] = Odor threshold and odor value of perfuming compounds (Tables 4 to 10)
[2] = Volatility of perfuming compounds (Tables 4 to 10), with top/middle/bottom note type; assay type: physicochemical
Method in brief: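 Note type follows from air volatility (μg/l): bottom 49–0.1, middle 99–50, top 70,000–100. Compounds are listed within watery, green, fruity, citrus, sweet, gourmand and woody families.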

[3] = Table 6, perfuming compounds having a fruity note
[4] = Table 8, perfuming compounds having a sweet note
[5] = Table 6, perfuming compounds having a fruity note, note type by volatility
[6] = Table 8, perfuming compounds having a sweet note, note type by volatility
[7] = Table 9, perfuming compounds having a gourmand note, note type by volatility
[8] = Table 4, watery note, equals volatility divided by odor threshold
[9] = perfuming compounds having a green note
[10] = Table 4, watery note, top, middle or bottom note
[11] = note type (Top/Middle/Bottom) by volatility, perfuming compounds having a green note
[12] = Table 7, citrus note, equals volatility divided by odor threshold
[13] = Table 7, citrus note, top, middle or bottom note
[14] = Table 10, perfuming compounds having a woody note, note type by volatility

Volatility [2, 3]: 10.49 μg/l air
Type [2, 5]: Bottom
Volatility [2, 4]: 10.49 μg/l air
Type [2, 6]: Bottom
Volatility ([2]; Table 9, gourmand note): 10.49 μg/l air
Type [2, 7]: Bottom
Compound: CCCCCCC1CCC(=O)O1 (racemic) [(+−)-4-DECANOLIDE]
Odor Threshold [1, 3]: 1.61E−04 μg/l air
Odor Value [1, 3]: 6.51E+04
Odor Threshold [1, 4]: 1.61E−04 μg/l air
Odor Value [1, 4]: 6.51E+04
Odor Threshold ([1]; Table 9, gourmand note): 1.61E−04 μg/l air

Volatility (μg/l air) ([2]; Table 4, watery note): 18.99 μg/l air
Type [2, 11]: Bottom
Volatility (μg/l air) [2, 9]: 18.99 μg/l air
Compound: COc1ccc(CC(C)C=O)cc1 (racemic) [(+−)-3-(4-methoxyphenyl)-2-methylpropanal]
Odor Threshold (μg/l air) ([1]; Table 4, watery note): 9.79E−03 μg/l air
Odor Value [1, 8]: 1.94E+03
Odor Threshold (μg/l air) [1, 9]: 9.79E−03 μg/l air
Type [2, 10]: bottom (perfuming compounds having a volatility ranging from 49 to 0.1 μg/l in air are referred to as “bottom notes”)

Volatility [2, 4]: 52.47 μg/l air
Type [2, 6]: Middle
Compound: CC1OCCC12NCCS2 (racemic)
Odor Threshold [1, 4]: 2.53E−06 μg/l air
Odor Value [1, 4]: 2.07E+07

Volatility (μg/l air) ([2]; Table 4, watery note): 12.81 μg/l air
Compound: CC(CC=O)CCCC(C)(C)O (racemic) [(+−)-7-hydroxy-3,7-dimethyloctanal]
Odor Threshold (μg/l air) ([1]; Table 4, watery note): 6.98E−03 μg/l air
Odor Value [1, 8]: 1.84E+03
Type [2, 10]: bottom (perfuming compounds having a volatility ranging from 49 to 0.1 μg/l in air are referred to as “bottom notes”)

Type [2, 11]: Top
Volatility (μg/l air) [2, 9]: 5986.62 μg/l air
Compound: CC/C=C\CCO [(Z)-3-HEXEN-1-OL]
Odor Threshold (μg/l air) [1, 9]: 1.13E−02 μg/l air

Compound: CC(C)C(=O)OCCOc1ccccc1 [2-phenoxyethyl 2-methylpropanoate]
Odor Threshold [1, 3]: 3.01E−02 μg/l air
Odor Value [1, 3]: 3.34E+02
Odor Threshold (μg/l air) [1, 9]: 3.01E−02 μg/l air
Volatility [2, 3]: 10.05 μg/l air
Type [2, 5]: Bottom
Type [2, 11]: Bottom
Volatility (μg/l air) [2, 9]: 10.05 μg/l air

Volatility [2, 3]: 61.65 μg/l air
Type [2, 5]: Middle
Compound: COC(=O)/C=C/c1ccccc1 [METHYL (E)-3-PHENYL-2-PROPENOATE]
Odor Threshold [1, 3]: 3.13E−03 μg/l air
Odor Value [1, 3]: 1.97E+04

Volatility (μg/l air) ([2]; Table 7, citrus note): 35.82 μg/l air
Type [2, 13]: Bottom
Compound: TRICYCLO[5.2.1.0(2,6)]DEC-3-EN-8-YL PROPANOATE (A) + TRICYCLO[5.2.1.0(2,6)]DEC-4-EN-8-YL PROPANOATE (B)
Odor Threshold (μg/l air) ([1]; Table 7, citrus note): 2.44E−04 μg/l air
Odor Value [1, 12]: 1.47E+05

Volatility [2, 3]: 1073.97 μg/l air
Type [2, 11]: Top
Volatility (μg/l air) [2, 9]: 1073.97 μg/l air
Compound: CC/C=C\CCOC(=O)C(C)C [(Z)-3-HEXENYL ISOBUTYRATE]
Odor Threshold (μg/l air) [1, 9]: 4.54E−02 μg/l air
Type [2, 5]: TOP (perfuming compounds having a volatility ranging from 70,000 to 100 μg/l in air are referred to as “top notes”)

Volatility (μg/l air) ([2]; Table 4, watery note): 63.49 μg/l air
Compound: (2R)-2-methyl-4-[(1R)-2,2,3-trimethyl-3-cyclopenten-1-yl]-4-pentenal (A) + (2S)-2-methyl-4-[(1R)-2,2,3-trimethyl-3-cyclopenten-1-yl]-4-pentenal (B)
Odor Threshold (μg/l air) ([1]; Table 4, watery note): 2.22E−03 μg/l air
Odor Value [1, 8]: 2.86E+04
Type [2, 10]: middle (perfuming compounds having a volatility ranging from 99 to 50 μg/l in air are referred to as “middle notes”)

Volatility [2, 3]: 67.38 μg/l air
Type [2, 5]: Middle
Volatility [2, 4]: 67.38 μg/l air
Type [2, 6]: Middle
Volatility ([2]; Table 9, gourmand note): 67.38 μg/l air
Type [2, 7]: Middle
Compound: CC(C)C(=O)OCCc1ccccc1 [2-PHENYLETHYL ISOBUTYRATE]
Odor Threshold [1, 3]: 6.70E−03 μg/l air
Odor Value [1, 3]: 1.01E+04
Odor Threshold [1, 4]: 6.70E−03 μg/l air
Odor Value [1, 4]: 1.01E+04
Odor Threshold ([1]; Table 9, gourmand note): 6.70E−03 μg/l air

Volatility [2, 3]: 159.75 μg/l air
Volatility [2, 4]: 159.75 μg/l air
Type [2, 6]: Top
Volatility ([2]; Table 9, gourmand note): 159.75 μg/l air
Type [2, 7]: Top
Compound: OCCc1ccccc1 [2-PHENYLETHANOL]
Odor Threshold [1, 4]: 1.02E−04 μg/l air
Odor Value [1, 4]: 1.56E+06
Odor Threshold ([1]; Table 9, gourmand note): 1.02E−04 μg/l air
Type [2, 5]: TOP (perfuming compounds having a volatility ranging from 70,000 to 100 μg/l in air are referred to as “top notes”)

Volatility [2, 3]: 111.67 μg/l air
Type [2, 11]: Top
Volatility (μg/l air) [2, 9]: 111.67 μg/l air
Compound: CCOC(=O)C12CCCC1C1CCC2C1 (centres unmarked)
Odor Threshold [1, 3]: 6.87E−05 μg/l air
Odor Value [1, 3]: 1.63E+06
Odor Threshold (μg/l air) [1, 9]: 6.87E−05 μg/l air
Type [2, 5]: TOP (perfuming compounds having a volatility ranging from 70,000 to 100 μg/l in air are referred to as “top notes”)

Volatility [2, 3]: 48.90 μg/l air
Type [2, 5]: Bottom
Type [2, 11]: Bottom
Volatility (μg/l air) [2, 9]: 48.90 μg/l air
Compound: CC1=C[C@H](C)[C@H]2[C@H](CCC(C)(C)[C@H]2O)C1 (racemic)
Odor Threshold [1, 3]: 8.15E−04 μg/l air
Odor Value [1, 3]: 6.00E+04
Odor Threshold (μg/l air) [1, 9]: 8.15E−04 μg/l air

Volatility [2, 4]: 4.24 μg/l air
Type [2, 6]: Bottom
Volatility ([2]; Table 9, gourmand note): 4.24 μg/l air
Type [2, 7]: Bottom
Compound: COc1cc(C=O)ccc1O [4-hydroxy-3-methoxybenzaldehyde]
Odor Threshold [1, 4]: 6.75E−06 μg/l air
Odor Value [1, 4]: 6.28E+05
Odor Threshold ([1]; Table 9, gourmand note): 6.75E−06 μg/l air

Volatility (μg/l air) ([2]; Table 4, watery note): 1889.68 μg/l air
Volatility [2, 3]: 1889.68 μg/l air
Compound: CC(C)=CCCC(C)C=O (racemic)
Odor Threshold (μg/l air) ([1]; Table 4, watery note): 2.11E−04 μg/l air
Odor Value [1, 8]: 8.96E+06
Type [2, 10]: TOP (perfuming compounds having a volatility ranging from 70,000 to 100 μg/l in air are referred to as “top notes”)
Type [2, 5]: TOP (perfuming compounds having a volatility ranging from 70,000 to 100 μg/l in air are referred to as “top notes”)

Volatility [2, 3]: 4.39 μg/l air
Type [2, 5]: Bottom
Compound: CCC(=O)OCC(C)(C)OC(C)C1CCCC(C)(C)C1 (single isomer, unassigned; (+))
Odor Threshold [1, 3]: 3.69E−04 μg/l air
Odor Value [1, 3]: 1.19E+04

Volatility [2, 3]: 23345.90 μg/l air
Type [2, 11]: Top
Volatility (μg/l air) [2, 9]: 23345.90 μg/l air
Compound: CCCCCC(=O)OC [METHYL HEXANOATE]
Odor Threshold (μg/l air) [1, 9]: 8.43E−02 μg/l air
Type [2, 5]: TOP (perfuming compounds having a volatility ranging from 70,000 to 100 μg/l in air are referred to as “top notes”)

Volatility [2, 3]: 3.82 μg/l air
Type [2, 5]: Bottom
Volatility (μg/l air) ([2]; Table 7, citrus note): 3.82 μg/l air
Type [2, 13]: Bottom
Type [2, 11]: Bottom
Volatility (μg/l air) [2, 9]: 3.82 μg/l air
Compound: CCCCCCOC(=O)c1ccccc1O [HEXYL 2-HYDROXYBENZOATE]
Odor Threshold [1, 3]: 5.50E−03 μg/l air
Odor Value [1, 3]: 6.95E+02
Odor Threshold (μg/l air) ([1]; Table 7, citrus note): 5.50E−03 μg/l air
Odor Value [1, 12]: 6.95E+02
Odor Threshold (μg/l air) [1, 9]: 5.50E−03 μg/l air

Volatility [2, 4]: 63.61 μg/l air
Type [2, 6]: Middle
Type [2, 14]: Middle
Volatility ([2]; Table 10, woody note): 63.61 μg/l air
Compound: CC(=O)CCC1=C(C)CCCC1(C)C
Odor Threshold [1, 4]: 8.51E−03 μg/l air
Odor Value [1, 4]: 7.48E+03
Odor Threshold ([1]; Table 10, woody note): 8.51E−03 μg/l air

Volatility [2, 3]: 27.42 μg/l air
Type [2, 5]: Bottom
Volatility ([2]; Table 9, gourmand note): 27.42 μg/l air
Type [2, 7]: Bottom
Compound: CCCCCC1CCC(=O)O1 (racemic) [(+−)-4-NONANOLIDE]
Odor Threshold [1, 3]: 1.45E−04 μg/l air
Odor Value [1, 3]: 1.89E+05
Odor Threshold ([1]; Table 9, gourmand note): 1.45E−04 μg/l air

Volatility (μg/l air) ([2]; Table 4, watery note): 12.86 μg/l air
Compound: CC(C=O)Cc1ccc(C(C)(C)C)cc1 (racemic) [(+−)-2-methyl-3-[4-(2-methyl-2-propanyl)phenyl]propanal]
Odor Threshold (μg/l air) ([1]; Table 4, watery note): 2.39E−04 μg/l air
Odor Value [1, 8]: 5.38E+04
Type [2, 10]: bottom (perfuming compounds having a volatility ranging from 49 to 0.1 μg/l in air are referred to as “bottom notes”)

Volatility [2, 3]: 9675.10 μg/l air
Volatility [2, 4]: 9675.10 μg/l air
Type [2, 6]: Top
Volatility ([2]; Table 9, gourmand note): 9675.10 μg/l air
Type [2, 7]: Top
Type [2, 11]: Top
Volatility (μg/l air) [2, 9]: 9675.10 μg/l air
Compound: CCCCCC(=O)OCC [ETHYL HEXANOATE]
Odor Threshold [1, 4]: 9.11E−04 μg/l air
Odor Value [1, 4]: 1.06E+07
Odor Threshold ([1]; Table 9, gourmand note): 9.11E−04 μg/l air
Odor Threshold (μg/l air) [1, 9]: 9.11E−04 μg/l air
Type [2, 5]: TOP (perfuming compounds having a volatility ranging from 70,000 to 100 μg/l in air are referred to as “top notes”)

Volatility [2, 3]: 25.34 μg/l air
Type [2, 5]: Bottom
Type [2, 11]: Bottom
Volatility (μg/l air) [2, 9]: 25.34 μg/l air
Compound: CCC=CCC=C/C=C/C(=O)OCC [ETHYL (2E)-2,4,7-DECATRIENOATE]
Odor Threshold [1, 3]: 1.49E−02 μg/l air
Odor Value [1, 3]: 1.70E+03
Odor Threshold (μg/l air) [1, 9]: 1.49E−02 μg/l air

Volatility [2, 4]: 7897.31 μg/l air
Type [2, 6]: Top
Compound: Cc1cnc(C)c(C)n1 [2,3,5-TRIMETHYLPYRAZINE]
Odor Threshold [1, 4]: 2.82E−04 μg/l air
Odor Value [1, 4]: 2.80E+07

Type [2, 14]: Bottom
Volatility ([2]; Table 10, woody note): 5.04 μg/l air
Compound: CCOC(C)OC1CCCCCCCCCCC1 (racemic) [(+−)-(1-ethoxyethoxy)cyclododecane]
Odor Threshold ([1]; Table 10, woody note): 2.51E−02 μg/l air

Type [2, 14]: Bottom
Volatility ([2]; Table 10, woody note): 6.63 μg/l air
Compound: CCOCOC1CCCCCCCCCCC1 [(ETHOXYMETHOXY)CYCLODODECANE]
Odor Threshold ([1]; Table 10, woody note): 8.90E−02 μg/l air
